Source: patent publication US8080423B2, “Reagent containing protease reaction promoter and/or colorant stabilizer” (Asahi Kasei Pharma Corporation, priority 2004, dated 2011)
Where “and” joins values, the source holds several entries; their conditions need not be identical. Equal entries are not always repeated. Where two headings read alike, the source gives them in different places.

Tests used:
[1] = tested on: Neutral protease (manufactured by Toyobo Co., Ltd.); assay: Screening of protease reaction promoter (Example 1); format: biochemical; details: for protease reaction promoting effect (in words): judged from Table 1
Protocol: 1) R-1: Reagent for Protein Decomposition
2) R-2: Reagent for Glycated Amino Acid Detection
The following substances were independently used as a test sample. Note that concentrations described in parentheses each represent a final concentration of the substance in the reagent R1.
Absorbance before the addition of the reagent R-2 and 5 minutes after the addition was measured at 660 nm. […] The AH-AL shown in Table 1 is a difference obtained by subtracting absorbance AL which was obtained from the primary calibrator at level 2 (5.38%) from absorbance AH which was obtained from the primary calibrator at level 4 (9.88%). Here, if AH-AL is large, the sample is judged to have a protease reaction promoting effect. In particular, when AH-AL is 20 or more, the sample has an excellent promoting effect.

[2] = Screening of stabilizer for colorant, MBTH-TOOS (Example 13); format: physicochemical
[3] = Screening of stabilizer for colorant, DA67 (Example 13); format: physicochemical
Protocol: (§1) The following substances were used as test samples. Note that concentrations described in parentheses each represent a final concentration of the substance in the reagent R-1.
(§2) Tween-20 (1%), Brij35 (1%), Triton X-100 (1%), deoxycholic acid (1%), imino-diacetic acid (IDA; 1 mM), ZnSO4 (0.1 mM), AlCl3 (0.1 mM), potassium ferrocyanate (0.01 mM), sorbitol (5%), glucose (5%), sodium nitrite (2 mM), dimethylsulfoxide (DMSO; 10%) (those substances are manufactured by Wako Pure Chemical Industries, Inc.), 2-hydroxypropyl-β-cyclodextrin (2HP β CD; 0.5%, 2%, 5%) and methyl-β-cyclodextrin (M β CD; 0.5%, 2%, 5%) (those substances are manufactured by Nihon Shokuhin Kako Co., Ltd.).
(§3) 500 μl of the R-1 reagent and 500 μl of the R-2 which had been incubated to 37° C. were mixed. The mixture was incubated to 37° C. for 2 minutes, and absorbance thereof (A0) was measured. The mixture was added with 10 μl of 500 μM hydrogen peroxide or distilled water. The whole was incubated to 37° C., and absorbance exactly 5 minutes after the addition of hydrogen peroxide (A1) was measured, to calculate a change in absorbance ΔA (A1-A0). The absorbance was measured using a wavelength of 750 nm when DA64 was used as the colorant, a wavelength of 660 nm when DA67 was used as the colorant, and a wavelength of 570 nm when 4-AA-TOOS was used as the colorant.
(§4) Immediately after the preparation of the reagent, the reagent was preserved at 37° C. for 2 days and 9 days, and measurement of sensitivity of a blank which was distilled water and of hydrogen peroxide was performed.

[4] = Screening of stabilizer for colorant, DA64 (Example 13); format: physicochemical; details: DA-64, 750 nm, 37° C., additives at conc. (1%; IDA 1 mM; Zn, Al 0.1 mM; ferrocyanide 0.01 mM; sorbitol 5%; DMSO 10%)
Protocol: as §1, §2, §3, §4

[5] = test sample 1% in R-1, 660 nm, 20 or more = excellent promoting effect
[6] = test sample 2 mM in R-1, 660 nm

Row | Molecule | AH (absorbance from primary calibrator at level 4 (9.88%)) ([1]; test sample 1% in R-1, 660 nm) | AL (absorbance from primary calibrator at level 2 (5.38%)) ([1]; test sample 1% in R-1, 660 nm) | AH − AL [1, 5] | protease reaction promoting effect (in words) [1] | also measured
1 | CCCCCCCCCCCC[N+](C)(C)CC(=O)[O-] [AM-301, betaine lauryl dimethylaminoacetate] | 122.0 | 109.9 | 12.1 mAbs |  | 
2 | Nc1ncnc2c1ncn2[C@@H]1O[C@H](COP(=O)(O)OP(=O)(O)OP(=O)(O)O)[C@@H](O)[C@H]1O [ATP, adenosine 5′-triphosphate, reference compound] |  |  |  |  | AH (absorbance from primary calibrator at level 4 (9.88%)) [1, 6]: 57.8; AH − AL [1, 6]: 3.6 mAbs; AL (absorbance from primary calibrator at level 2 (5.38%)) [1, 6]: 54.2
3 | [Cl][Al]([Cl])[Cl] [AlCl3] |  |  |  |  | blank (distilled water) change in absorbance [2]: 0.045 Abs and 0.055 Abs and 0.058 Abs; change in absorbance when 500 μM of hydrogen peroxide was measured [2]: 0.005 and 0.009; AH (absorbance from primary calibrator at level 4 (9.88%)) [1]: 60.7; AH − AL [1]: 5.6 mAbs; AL (absorbance from primary calibrator at level 2 (5.38%)) [1]: 55.1
4 | C[C@H](CCC(=O)NCCC[N+](C)(C)CCCS(=O)(=O)[O-])[C@H]1CC[C@H]2[C@@H]3[C@H](O)C[C@@H]4C[C@H](O)CC[C@]4(C)[C@H]3C[C@H](O)[C@]12C [CHAPS, 3-[(3-cholamidopropyl)dimethyl-ammonio]propanesulfonic acid, reference compound] | 111.4 | 104.5 | 6.9 mAbs |  | 
5 | C[S+](C)[O-] [Dimethylsulfoxide, dimethylsulfoxide, reference compound] |  |  |  |  | blank (distilled water) change in absorbance ([2]; MBTH-TOOS, 570 nm, 37° C., 0 days, additives at conc. (1%; IDA 1 mM; Zn, Al 0.1 mM; ferrocyanide 0.01 mM; sorbitol 5%; DMSO 10%)): 0.149 Abs; blank (distilled water) change in absorbance ([2]; MBTH-TOOS, 570 nm, 37° C., 2 days, additives at conc. (1%; IDA 1 mM; Zn, Al 0.1 mM; ferrocyanide 0.01 mM; sorbitol 5%; DMSO 10%)): 1.134 Abs; AH (absorbance from primary calibrator at level 4 (9.88%)) ([1]; test sample 10% in R-1, 660 nm): 63.0; AH − AL ([1]; test sample 10% in R-1, 660 nm): 3.4 mAbs; AL (absorbance from primary calibrator at level 2 (5.38%)) ([1]; test sample 10% in R-1, 660 nm): 59.6; blank (distilled water) change in absorbance ([3]; DA-67, 660 nm, 37° C., 0 days, additives at conc. (1%; IDA 1 mM; Zn, Al 0.1 mM; ferrocyanide 0.01 mM; sorbitol 5%; DMSO 10%)): 0.088 Abs; blank (distilled water) change in absorbance ([3]; DA-67, 660 nm, 37° C., 2 days, additives at conc. (1%; IDA 1 mM; Zn, Al 0.1 mM; ferrocyanide 0.01 mM; sorbitol 5%; DMSO 10%)): 2.103 Abs; blank (distilled water) change in absorbance ([4]; 0 days): −0.005 Abs; blank (distilled water) change in absorbance ([4]; 2 days): 0.085 Abs; blank (distilled water) change in absorbance ([4]; 9 days): 0.233 Abs
6 | CCCCCCCCCCCCCOCCOCCOCCOCCOCCOCCOCC(=O)[O-].[Na+] [ECTD-6NEX, sodium polyoxyethylene(6)tridecyl ether acetate] | 82.9 | 53.4 | 29.5 mAbs | effects were observed | 
7 | Cc1cc2nc3c(=O)[nH]c(=O)nc-3n(C[C@H](O)[C@H](O)[C@H](O)COP(=O)(O)OP(=O)(O)OC[C@H]3O[C@@H](n4cnc5c(N)ncnc54)[C@H](O)[C@@H]3O)c2cc1C [FAD, flavin adenine dinucleotide, reference compound] |  |  |  |  | AH (absorbance from primary calibrator at level 4 (9.88%)) [1, 6]: 46.2; AH − AL [1, 6]: 0.7 mAbs; AL (absorbance from primary calibrator at level 2 (5.38%)) [1, 6]: 45.5
8 | CCCCCCCCCCCC(=O)N(C)CCS(=O)(=O)[O-].[Na+] [LMT, sodium N-lauroyl methyl taurinate] | 102.4 | 73.0 | 29.4 mAbs | effects were observed | 
9 | CCCCCCCCCCCCOP(=O)(O)O [Phosten HLP, lauryl phosphate] | 134.6 | 121.9 | 12.7 mAbs |  | 
10 | CCCCCCCCCCCCOCCOCCOS(=O)(=O)O.OCCN(CCO)CCO [SBL-2T-36, triethanolamine polyoxyethylene(2)lauryl ether sulfate] | 93.3 | 65.3 | 28.0 mAbs | effects were observed | 
11 | CCCCCCCCCCCCOCCOCCOCCOCCOS(=O)(=O)O.OCCN(CCO)CCO [SBL-4T, triethanolamine polyoxyethylene(4)lauryl ether sulfate] | 103.2 | 75.2 | 28.0 mAbs | effects were observed | 
12 | CCCCCCCCCCCCOS(=O)(=O)[O-].[Na+] [SLS, sodium lauryl sulfate, reference compound] | 53.3 | 48.7 | 4.6 mAbs |  | 
13 | O=NO [Sodium nitrite, sodium nitrite, reference compound] |  |  |  |  | AH (absorbance from primary calibrator at level 4 (9.88%)) [1]: 107.9; AH − AL [1]: 26.2 mAbs; AL (absorbance from primary calibrator at level 2 (5.38%)) [1]: 81.7
14 | O=[N+]([O-])c1ccc(-[n+]2nc(-c3ccc(S(=O)(=O)O)cc3S(=O)(=O)O)nn2-c2ccc(I)cc2)c([N+](=O)[O-])c1 [WST-3, 2-(4-iodophenyl)-3-(2,4-dinitrophenyl)-5-(2,4-disulfophenyl)-2H-tetrazolium, reference compound] |  |  |  |  | AH (absorbance from primary calibrator at level 4 (9.88%)) [1, 6]: 184.6; AH − AL [1, 6]: 23.7 mAbs; AL (absorbance from primary calibrator at level 2 (5.38%)) [1, 6]: 160.9
15 | O=S(=O)([O-])[O-].[Zn+2] [ZnSO4, reference compound] |  |  |  |  | blank (distilled water) change in absorbance [2]: 0.050 Abs and 0.049 Abs and 0.055 Abs; change in absorbance when 500 μM of hydrogen peroxide was measured [2]: 0.003; AH (absorbance from primary calibrator at level 4 (9.88%)) [1]: 145.7; AH − AL [1]: 1.6 mAbs; AL (absorbance from primary calibrator at level 2 (5.38%)) [1]: 144.1; blank (distilled water) change in absorbance [3]: 0.051 Abs and 0.062 Abs and 0.050 Abs
16 | monostearate polyoxyethylene(15)glyceryl [TMGS-15] | 92.0 | 82.2 | 9.8 mAbs |  | 
17 | sodium cocoyl sarcosinate [Sarcosinate CN-30] | 106.2 | 76.6 | 29.6 mAbs | effects were observed | 
18 | sodium polyoxyethylene(3)tridecyl ether acetate [ECTD-3NEX] | 95.8 | 68.3 | 27.5 mAbs | effects were observed | 
19 | triethanolamine polyoxyethylene(3)alkyl ether sulfate [SBL-203-27] | 112.1 | 84.3 | 27.8 mAbs | effects were observed | 
